Results on 102 compounds are retold here after EPA's aquatic toxicity sets.

Each structure is given as a SMILES string.

The first data set deals with Daphnia magna. The experiment in a line: 48 h LC50 (-log10 mol/L); higher = more toxic.
Turning to `CNC(=S)NC`, the “48 h LC50 (-log10 mol/L)” value is 3.83.
On the same count and under the same terms, the result for `CC(=O)Nc1ccc(O)cc1` reads 4.22; that for `CCOC(=O)CC`, 2.83.
The same measure, in the same setting: to `CCCCNC(N)=S` belongs 3.85; to `CNC(N)=S`, 3.98.
On to `NC(N)=S`, for which the “48 h LC50 (-log10 mol/L)” value amounted to 3.88.
For the compound `Nc1ccc(Cl)cc1Cl`, the “48 h LC50 (-log10 mol/L)” value is 5.43.
For `Cc1cc(Cl)ccc1O`, the “48 h LC50 (-log10 mol/L)” value turned out to be 5.69.
The same measure, in the same setting: to `CCNC(N)=S` belongs 3.94; to `COc1c(C(C)(C)C)cc([N+](=O)[O-])c(C)c1[N+](=O)[O-]`, 5.64; to `CCNC(=S)Nc1ccccc1`, 3.35.
On to `ClCCOCCCl`, for which the “48 h LC50 (-log10 mol/L)” value was found to be 2.78.
Take `CCCC1COC(Cn2cncn2)(c2ccc(Cl)cc2Cl)O1` (stereo unspecified): the “48 h LC50 (-log10 mol/L)” value worked out at 4.72.
On to `Clc1ccc(-c2ccccc2)cc1`, for which the “48 h LC50 (-log10 mol/L)” value was 5.63.
As for `Nc1cc(Cl)c(Cl)c(Cl)c1Cl`, the “48 h LC50 (-log10 mol/L)” value came to 5.56.
Take `CCS`: the “48 h LC50 (-log10 mol/L)” value stood at 5.56.
For the compound `COc1ccccc1OCCNCC(O)COc1cccc2[nH]c3ccccc3c12` (stereo unspecified), the “48 h LC50 (-log10 mol/L)” value amounted to 5.13.
Same read-out and setting: to `c1ccc2c(c1)sc1ccccc12` belongs 5.6.
On the same count and under the same terms, to `O=NN(c1ccccc1)c1ccccc1` belongs 4.4; to `CC(C)C(=O)Nc1ccc([N+](=O)[O-])c(C(F)(F)F)c1`, 5.3; to `CC(C)(C)NCC(O)COc1cccc2c1C[C@H](O)[C@H](O)C2` (stereo partly specified), 3.28.
Take `CCNc1nc(NCC)nc(SC)n1`: the “48 h LC50 (-log10 mol/L)” value amounted to 3.63.
As for `CC(C)CCCCCCCCCCNCCCCCCCCCCC(C)C`, the “48 h LC50 (-log10 mol/L)” value was 6.54.
On the same count and under the same terms, the result for `CN1CCCC1=O` reads 4.91; that for `C[C@]12C/C(=C/O)C(=O)C[C@@H]1CC[C@@H]1[C@@H]2CC[C@@]2(C)[C@H]1CC[C@]2(C)O`, 4.54.
Take `CCCN(CCC)C(=S)SSC(=S)N(CCC)CCC`: the “48 h LC50 (-log10 mol/L)” value turned out to be 6.19.
`CC1(C)[C@H](/C=C(\Cl)C(F)(F)F)[C@@H]1C(=O)O[C@@H](C#N)c1cccc(Oc2ccccc2)c1`: the “48 h LC50 (-log10 mol/L)” value was found to be 8.68.
Consider `O=S(=O)(c1ccc(Cl)cc1)c1cc(Cl)c(Cl)cc1Cl`, for which the “48 h LC50 (-log10 mol/L)” value was 4.71.
Regarding `COC(=O)c1ccccc1C(=O)OC`, the “48 h LC50 (-log10 mol/L)” value came out at 3.77.
For the compound `CCCSc1ccc2nc(NC(=O)OC)[nH]c2c1`, the “48 h LC50 (-log10 mol/L)” value amounted to 7.04.
On to `BrC1CCCCC1`, for which the “48 h LC50 (-log10 mol/L)” value was determined as 3.89.
For `CCNC(=S)NCC`, the “48 h LC50 (-log10 mol/L)” value was found to be 2.84.
As for `COCC(=O)N(c1c(C)cccc1C)[C@H](C)C(=O)OC`, the “48 h LC50 (-log10 mol/L)” value is 3.54.
Turning to `COc1cc(Cl)c(Cl)c(Cl)c1O`, the “48 h LC50 (-log10 mol/L)” value worked out at 5.37.
Consider `NNC(=O)c1ccncc1`, for which the “48 h LC50 (-log10 mol/L)” value came out at 3.77.
Regarding `O=C1CNC(=S)N1`, the “48 h LC50 (-log10 mol/L)” value turned out to be 3.77.
Consider `C[C@]12CC[C@H]3[C@@H](CCC4=CC(=O)CC[C@@]43C)[C@@H]1CC[C@@H]2O`, for which the “48 h LC50 (-log10 mol/L)” value was found to be 5.17.
With `Clc1cc(Cl)c(-c2cc(Cl)c(Cl)cc2Cl)cc1Cl`, the “48 h LC50 (-log10 mol/L)” value worked out at 8.44.
Consider `N/C(=N\N=C\c1ccc(Cl)cc1)N/N=C/c1ccc(Cl)cc1`, for which the “48 h LC50 (-log10 mol/L)” value is 6.65.
On the same count and under the same terms, to `CCCS` belongs 6.1; to `Cc1nc2n(c(=O)c1CCN1CCC(c3noc4cc(F)ccc34)CC1)CCCC2`, 4.83.
As to `Nc1ccn([C@H]2CC[C@@H](CO)O2)c(=O)n1`, the “48 h LC50 (-log10 mol/L)” value came to 2.07.
`CN(C)[C@@H]1C(=O)C(C(N)=O)=C(O)[C@@]2(O)C(=O)C3=C(O)c4c(O)ccc(Cl)c4[C@@](C)(O)[C@H]3C[C@@H]12`: the “48 h LC50 (-log10 mol/L)” value stood at 3.57.
For the compound `CC1CCCCC1`, the “48 h LC50 (-log10 mol/L)” value is 4.82.
Turning to `CCOP(=O)(OCC)OC(=CCl)c1ccc(Cl)cc1Cl`, the “48 h LC50 (-log10 mol/L)” value is 6.56.
As for `Nc1cc(Cl)c(Cl)cc1Cl`, the “48 h LC50 (-log10 mol/L)” value came out at 4.76.
`CCC(CC)Nc1c([N+](=O)[O-])cc(C)c(C)c1[N+](=O)[O-]`: the “48 h LC50 (-log10 mol/L)” value stood at 3.73.
As for `C/C=C(\C)C(=O)O[C@H]1C[C@@H](OC(C)=O)[C@@]2(C(=O)OC)CO[C@H]3[C@@H](O)[C@@](C)([C@]45O[C@@]4(C)[C@H]4C[C@@H]5O[C@@H]5OC=C[C@@]54O)[C@H]4[C@]1(CO[C@]4(O)C(=O)OC)[C@@H]32`, the “48 h LC50 (-log10 mol/L)” value was determined as 6.06.
Turning to `CCCCN(CC)C(=O)SCCC`, the “48 h LC50 (-log10 mol/L)” value came to 4.47.
In the case of `COc1ccccc1O`, the “48 h LC50 (-log10 mol/L)” value came to 3.68.
Still for that read-out and setting: to `ClCCCCl` belongs 2.61; to `CC1=CCC2CC1C2(C)C` (stereo unspecified), 3.52.
Consider `CCCCC(CC)COC(=O)CCCCC(=O)OCC(CC)CCCC` (stereo unspecified), for which the “48 h LC50 (-log10 mol/L)” value turned out to be 5.75.
Same read-out and setting: the result for `Clc1cccc(Cl)c1Cl` reads 4.75; that for `c1ccc2c(c1)ccc1oc3ccccc3c12`, 4.74; that for `CN/C(=C\[N+](=O)[O-])NCCSCc1ccc(CN(C)C)o1`, 2.69.
On to `c1cc2ccc3cccc4ccc(c1)c2c34`, for which the “48 h LC50 (-log10 mol/L)” value turned out to be 6.17.
For `O=S1(=O)C=Cc2ccccc21`, the “48 h LC50 (-log10 mol/L)” value came to 4.07.
Turning to `O=[N+]([O-])c1ccc(Oc2c(Cl)cc(Cl)cc2Cl)cc1`, the “48 h LC50 (-log10 mol/L)” value is 5.88.
Same read-out and setting: to `CN(C)C(=O)Nc1ccc(Oc2ccc(Cl)cc2)cc1` belongs 4.99.
For the compound `CC1=CC(=O)C(C)=C(C)C1=O`, the “48 h LC50 (-log10 mol/L)” value came to 5.
For the compound `O=C(O)/C=C\C(=O)O`, the “48 h LC50 (-log10 mol/L)” value is 2.76.
Consider `Cc1cc(C)cc(OCC2CNC(=O)O2)c1` (stereo unspecified), for which the “48 h LC50 (-log10 mol/L)” value stood at 3.47.
`CC1(C)[C@H](C(=O)O[C@H](C#N)c2cccc(Oc3ccccc3)c2)[C@@H]1C(Br)C(Br)(Br)Br` (stereo partly specified): the “48 h LC50 (-log10 mol/L)” value worked out at 9.95.
Consider `NC(N)=Nc1nc(CSCC/C(N)=N/S(N)(=O)=O)cs1`, for which the “48 h LC50 (-log10 mol/L)” value was determined as 2.93.
The same measure, in the same setting: to `C=C1C[C@]23C[C@@]1(O)CC[C@H]2[C@@]12C=C[C@H](O)[C@@](C)(C(=O)O1)[C@H]2[C@@H]3C(=O)O` belongs 4.19; to `CCCN(CCC)C(=O)SCC`, 4.61.
Same read-out and setting: to `c1ccc2sc(SSc3nc4ccccc4s3)nc2c1` belongs 3.62.
With `CNC(=S)N(C)C`, the “48 h LC50 (-log10 mol/L)” value is 2.19.
Take `Clc1cc(Cl)c(Cl)c(Cl)c1`: the “48 h LC50 (-log10 mol/L)” value came out at 4.87.
Regarding `Cc1nc(N(C)C)nc(OC(=O)N(C)C)c1C`, the “48 h LC50 (-log10 mol/L)” value turned out to be 7.04.
`CO/N=C(/C(=O)OC)c1ccccc1CO/N=C(\C)c1cccc(C(F)(F)F)c1`: the “48 h LC50 (-log10 mol/L)” value stood at 5.74.
With `CC/C(=C(/CC)c1ccc(O)cc1)c1ccc(O)cc1`, the “48 h LC50 (-log10 mol/L)” value came to 5.37.
On to `Cn1cc(-c2ccccc2)c(=O)c(-c2cccc(C(F)(F)F)c2)c1`, for which the “48 h LC50 (-log10 mol/L)” value was found to be 4.9.
As for `CCOc1ccc2c(c1)C(C)=CC(C)(C)N2`, the “48 h LC50 (-log10 mol/L)” value was 5.04.
The same measure, in the same setting: the result for `CCNc1nc(Cl)nc(NC(C)(C)C#N)n1` reads 6.45; that for `N#Cc1ncccn1`, 3.34; that for `Cc1cc(Cl)cc(Cl)c1O`, 5.63.
The same measure, in the same setting: the result for `Oc1cc(Cl)ccc1Oc1ccc(Cl)cc1Cl` reads 6.11.
Take `O=CCCCC=O`: the “48 h LC50 (-log10 mol/L)” value came out at 3.79.
`CC(C)(Oc1ccc(Cl)cc1)C(=O)O`: the “48 h LC50 (-log10 mol/L)” value is 3.47.
Consider `O=[N+]([O-])c1ccc(Cl)cc1`, for which the “48 h LC50 (-log10 mol/L)” value was determined as 4.31.
With `Clc1ccc(-c2ccc(Cl)c(Cl)c2Cl)c(Cl)c1Cl`, the “48 h LC50 (-log10 mol/L)” value is 8.78.
Still for that read-out and setting: the result for `O=c1cc[nH]c(=S)[nH]1` reads 4.22; that for `CC(C)(C)NC(=O)[C@@H]1C[C@@H]2CCCC[C@@H]2CN1C[C@@H](O)[C@H](Cc1ccccc1)NC(=O)[C@H](CC(N)=O)NC(=O)c1ccc2ccccc2n1`, 4.27.
On to `CC(C)CCCCCCCOP(=O)(Oc1ccccc1)Oc1ccccc1`, for which the “48 h LC50 (-log10 mol/L)” value came to 7.1.
Still for that read-out and setting: to `COc1cccc(N)c1` belongs 5.64.
As to `Cc1cn([C@H]2C=C[C@@H](CO)O2)c(=O)[nH]c1=O`, the “48 h LC50 (-log10 mol/L)” value is 2.36.
In the case of `CCCOC(=O)NCCCN(C)C`, the “48 h LC50 (-log10 mol/L)” value stood at 3.25.
`CCOP(=O)(NC(C)C)Oc1ccc(SC)c(C)c1` (stereo unspecified): the “48 h LC50 (-log10 mol/L)” value is 8.11.
Take `Fc1ccc([C@@H]2CCNC[C@H]2COc2ccc3c(c2)OCO3)cc1`: the “48 h LC50 (-log10 mol/L)” value is 5.75.
As for `CCC(C)c1ccccc1OC(=O)NC` (stereo unspecified), the “48 h LC50 (-log10 mol/L)” value was determined as 6.32.
With `CC1(C)[C@@H]2CC[C@@]1(C)[C@H](OC(=O)CSC#N)C2`, the “48 h LC50 (-log10 mol/L)” value is 6.47.
Turning to `CCCCCCCCCC`, the “48 h LC50 (-log10 mol/L)” value is 5.3.
In the case of `COP(=O)(NC(C)=O)SC` (stereo unspecified), the “48 h LC50 (-log10 mol/L)” value turned out to be 4.11.
For `Brc1ccc(Oc2cc(Br)c(Br)cc2Br)c(Br)c1`, the “48 h LC50 (-log10 mol/L)” value was 7.02.
For `CN1CSC(=S)N(C)C1`, the “48 h LC50 (-log10 mol/L)” value is 5.47.
Same read-out and setting: the result for `FC(F)C(F)(F)OCC(Cn1cncn1)c1ccc(Cl)cc1Cl` (stereo unspecified) reads 4.71.
In the case of `CC(F)(Cl)Cl`, the “48 h LC50 (-log10 mol/L)” value amounted to 3.58.
As for `CNC(=O)Oc1cccc2c1OC(C)(C)O2`, the “48 h LC50 (-log10 mol/L)” value turned out to be 6.88.
As for `CCNc1nc(Cl)nc(NCC)n1`, the “48 h LC50 (-log10 mol/L)” value stood at 3.33.
Regarding `CC(=O)CC(c1ccccc1)c1c(O)c2ccccc2oc1=O` (stereo unspecified), the “48 h LC50 (-log10 mol/L)” value is 2.96.

The subject of the next data set is Tetrahymena pyriformis. In words: 48 h IGC50 (-log10 mol/L); higher = more toxic.
Regarding `CNC(=S)NC`, the “48 h IGC50 (-log10 mol/L)” value worked out at 1.89.
Turning to `CC(=O)Nc1ccc(O)cc1`, the “48 h IGC50 (-log10 mol/L)” value is 2.18.
For the compound `CCOC(=O)CC`, the “48 h IGC50 (-log10 mol/L)” value was determined as 2.06.
On to `CCCCNC(N)=S`, for which the “48 h IGC50 (-log10 mol/L)” value was 2.81.
For `CNC(N)=S`, the “48 h IGC50 (-log10 mol/L)” value turned out to be 1.63.
Regarding `NC(N)=S`, the “48 h IGC50 (-log10 mol/L)” value was 1.68.
As to `Nc1ccc(Cl)cc1Cl`, the “48 h IGC50 (-log10 mol/L)” value was found to be 3.56.
For the compound `Cc1cc(Cl)ccc1O`, the “48 h IGC50 (-log10 mol/L)” value came out at 3.7.
Consider `CCNC(N)=S`, for which the “48 h IGC50 (-log10 mol/L)” value stood at 1.87.
